# Laboratory results published in the supplement of paper PMC10307832.
# Legend:
# Test in all cases: relative viability (nuclei count vs DMSO), 5 days (fraction); higher = more cells survive
# [1] = compound: COC1=CC=C(C=C1)CN2C=CC3=C2C=C(C=C3)C(=O)NO + CC(=O)Nc1cccc(-n2c(=O)n(C3CC3)c(=O)c3c(Nc4ccc(I)cc4F)n(C)c(=O)c(C)c32)c1 [Trametinib] (partner 0.02 µM)
# Procedure, shortened: (§1)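 Lung cancer cell lines were pin-tool dosed in 1536-well plates on the day after seeding, with either a lone drug or a fixed anchor-drug dose plus five library-drug doses (not always all listed) in √10 steps. Nuclei were counted on 4× images after 5 days. Relative viability is the ratio of treated-well to vehicle-well nuclei counts, with each value a median of duplicate plates.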
# [2] = compound: COC1=CC=C(C=C1)CN2C=CC3=C2C=C(C=C3)C(=O)NO + CC(=O)c1c(C)c2cnc(Nc3ccc(N4CCNCC4)cn3)nc2n(C2CCCC2)c1=O [Palbociclib] (partner 0.5 µM)
# Procedure, shortened: as §1
# [3] = compound: COC1=CC=C(C=C1)CN2C=CC3=C2C=C(C=C3)C(=O)NO + CC1(C)CCC(c2ccc(Cl)cc2)=C(CN2CCN(c3ccc(C(=O)NS(=O)(=O)c4ccc(N[C@H](CCN5CCOCC5)CSc5ccccc5)c(S(=O)(=O)C(F)(F)F)c4)cc3)CC2)C1 [Navitoclax] (partner 0.5 µM)
# Procedure, shortened: as §1
# [4] = compound: COC1=CC=C(C=C1)CN2C=CC3=C2C=C(C=C3)C(=O)NO + C[C@]1(O)C[C@@H](c2nc(-c3ccc4ccc(-c5ccccc5)nc4c3)c3c(N)nccn32)C1 [Linsitinib] (partner 1 µM)
# Procedure, shortened: as §1
Cell Line,relative viability ([1]; first compound 0.253 µM),relative viability ([1]; first compound 0.8 µM),relative viability ([1]; first compound 2.53 µM),relative viability ([1]; first compound 8 µM),relative viability ([2]; first compound 0.253 µM),relative viability ([2]; first compound 0.8 µM),relative viability ([2]; first compound 2.53 µM),relative viability ([2]; first compound 8 µM),relative viability ([3]; first compound 0.08 µM),relative viability ([3]; first compound 0.253 µM),relative viability ([3]; first compound 0.8 µM),relative viability ([3]; first compound 2.53 µM),relative viability ([3]; first compound 8 µM),relative viability ([4]; first compound 0.08 µM),relative viability ([4]; first compound 0.253 µM),relative viability ([4]; first compound 0.8 µM),relative viability ([4]; first compound 2.53 µM),relative viability ([4]; first compound 8 µM),relative viability ([1]; first compound 0.08 µM),relative viability ([2]; first compound 0.08 µM)
LXF-289,0.698,0.712,0.677,0.677,0.588,0.609,0.607,0.581,0.446,0.947,0.954,0.935,1.03,0.456,0.951,0.998,0.986,0.959,–,–
NCI-H23,0.445,0.397,0.381,0.283,0.611,0.556,0.496,0.461,0.675,0.689,0.896,0.985,0.728,0.406,0.619,0.564,0.599,0.544,0.298,0.393
NCI-H322M,–,0.493,0.495,0.485,–,0.513,0.435,0.48,–,1.1,1.13,1.18,1.24,–,0.934,0.931,0.946,0.926,–,–
NCI-H441,0.491,0.61,0.422,0.449,0.235,0.238,0.231,0.185,0.611,0.708,0.701,0.523,0.595,0.304,0.676,0.573,0.579,0.42,0.353,0.23
NCI-H460,0.123,0.153,0.178,0.0809,0.173,0.0964,0.186,0.108,1.04,1.15,1.08,1.15,1.1,0.553,0.879,0.714,0.705,0.776,0.157,0.201
NCI-H520,0.723,0.74,0.555,0.723,0.194,0.208,0.214,0.195,0.279,1.18,1.27,1.15,1.09,0.313,1.04,1.01,0.977,0.946,0.426,0.197
NCI-H647,0.365,0.493,0.669,0.439,0.364,0.379,0.494,0.438,–,1.04,1,0.959,1.21,0.886,1.01,1.2,1.28,1.02,0.481,0.441
NCI-H727,0.383,0.377,0.37,0.371,0.631,0.698,0.644,0.601,0.342,0.404,0.404,0.543,0.341,0.214,0.355,0.298,0.256,0.298,0.418,0.61
NCI-H838,0.472,0.561,0.547,0.429,0.237,0.226,0.228,0.18,–,1.22,1.17,1.22,1.09,–,1.13,1.13,1.08,0.961,0.346,0.214
NCI-H1355,0.433,0.403,0.473,0.44,0.471,0.425,0.413,0.411,0.781,1,0.94,1.11,0.873,0.792,0.826,0.812,0.895,0.809,0.42,0.382
NCI-H1395,1.07,1.06,0.96,0.995,0.632,0.709,0.6,0.563,0.688,1.29,1.12,1.4,0.992,0.773,1.28,1.11,1.08,0.918,–,–
NCI-H1437,0.494,0.538,0.66,0.57,0.295,0.344,0.366,0.326,0.898,1.08,1.1,1.15,1.05,0.847,1.1,1.01,1,1.13,0.452,0.283
NCI-H1651,0.917,0.867,0.787,0.828,0.519,0.525,0.51,0.531,0.926,1.14,1.07,0.987,0.92,0.939,1.01,1.08,0.869,0.716,0.798,0.476
NCI-H1666,0.881,0.849,0.934,0.793,0.661,0.694,0.679,0.625,0.85,0.893,0.988,1.26,1.06,0.696,0.892,0.757,0.76,0.901,0.835,0.642
NCI-H1734,0.739,0.725,0.716,0.732,0.367,0.387,0.341,0.34,–,0.899,0.947,0.805,0.882,–,0.953,0.871,0.93,0.855,–,–
NCI-H1755,0.77,0.791,0.758,0.753,0.48,0.5,0.448,0.423,0.949,1.02,1,1.03,1.02,0.955,0.987,1,1.04,1.02,0.711,0.464
NCI-H1792,0.426,0.394,0.379,0.423,0.726,0.626,0.634,0.637,0.574,0.55,0.481,0.646,0.601,0.535,0.62,0.636,0.539,0.425,0.459,0.616
NCI-H1793,0.471,0.449,0.416,0.336,0.344,0.324,0.32,0.248,0.461,0.672,0.479,0.406,0.424,0.934,0.941,1.09,0.976,0.86,–,–
NCI-H1915,0.297,0.305,0.32,0.31,0.545,0.518,0.505,0.559,0.724,0.778,0.799,0.807,0.781,1.05,1.1,1.07,1.09,1.09,0.282,0.506
NCI-H1944,0.415,0.449,0.421,0.429,0.36,0.315,0.338,0.308,–,0.998,1.02,1.08,1.08,–,1.18,1.38,1.21,1.1,–,–
NCI-H1975,0.348,0.359,0.413,0.349,0.627,0.604,0.665,0.537,0.979,1.17,1.26,1.06,1.16,0.929,1.07,0.956,0.931,0.863,0.308,0.347
NCI-H1993,0.564,0.518,0.514,0.543,1.12,0.749,0.714,0.593,0.68,1.02,1.04,1.09,0.991,0.738,0.783,0.785,0.759,0.741,0.526,0.586
NCI-H2009,0.264,0.261,0.248,0.194,0.215,0.243,0.226,0.162,1.23,1.19,1.13,1.18,1.13,1.21,1.17,1.13,1.21,1.19,0.288,0.211
NCI-H2023,0.594,0.474,0.589,0.48,0.355,0.433,0.359,0.365,0.94,1.07,0.946,0.994,0.98,0.576,0.645,0.64,0.7,0.637,0.478,0.36
NCI-H2085,0.665,0.692,0.524,0.406,0.452,0.495,0.464,0.538,0.891,1.04,1.19,1.01,1.08,0.794,0.921,0.931,0.925,0.934,0.528,0.492
NCI-H2087,0.204,0.232,0.181,0.154,0.226,0.259,0.28,0.164,0.974,1.03,1.13,1.08,0.856,0.902,0.969,0.95,0.883,0.921,0.163,0.261
NCI-H2126,0.592,0.6,0.622,0.581,0.339,0.368,0.361,0.376,0.824,0.931,0.849,0.848,0.886,0.735,0.754,0.686,0.737,0.727,0.569,0.34
